For test [1], the target named is T1, OGA (Homo sapiens, UniProt O60502).
T1 construct: HEK293 cells inducible for P301L mutant human Tau (isoform 2N4R) were established at Janssen; endogenous in cells; host or cells: HEK293 cells inducible for P301L mutant human Tau (2N4R)
T1 sequence (O60502 1-916): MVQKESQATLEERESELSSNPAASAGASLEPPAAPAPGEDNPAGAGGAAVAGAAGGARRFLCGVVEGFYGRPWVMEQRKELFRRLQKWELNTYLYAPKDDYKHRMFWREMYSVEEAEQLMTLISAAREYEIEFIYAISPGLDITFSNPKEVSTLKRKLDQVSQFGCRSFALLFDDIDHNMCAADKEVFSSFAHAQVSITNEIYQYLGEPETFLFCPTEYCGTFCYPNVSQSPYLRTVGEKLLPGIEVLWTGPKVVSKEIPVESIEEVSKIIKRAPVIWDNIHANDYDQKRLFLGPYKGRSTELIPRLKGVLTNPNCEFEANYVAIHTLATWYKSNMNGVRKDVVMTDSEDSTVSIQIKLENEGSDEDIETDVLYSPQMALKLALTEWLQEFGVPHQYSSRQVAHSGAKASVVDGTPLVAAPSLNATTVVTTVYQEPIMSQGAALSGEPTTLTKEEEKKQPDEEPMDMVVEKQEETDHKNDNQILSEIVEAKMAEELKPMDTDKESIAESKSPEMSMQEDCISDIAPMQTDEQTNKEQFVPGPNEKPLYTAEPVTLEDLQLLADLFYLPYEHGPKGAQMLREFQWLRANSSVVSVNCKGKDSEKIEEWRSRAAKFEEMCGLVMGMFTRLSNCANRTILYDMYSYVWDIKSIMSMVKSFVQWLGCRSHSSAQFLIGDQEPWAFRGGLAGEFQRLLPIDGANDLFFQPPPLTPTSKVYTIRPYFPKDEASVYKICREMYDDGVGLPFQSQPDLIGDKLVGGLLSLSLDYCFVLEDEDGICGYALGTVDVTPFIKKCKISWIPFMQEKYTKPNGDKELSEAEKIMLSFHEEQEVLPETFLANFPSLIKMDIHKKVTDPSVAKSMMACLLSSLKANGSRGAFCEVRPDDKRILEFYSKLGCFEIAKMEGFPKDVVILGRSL
Briefly: OGA cellular assay (ICC detection of O-GlcNAcylated proteins in HEK293 cells inducible for P301L mutant human Tau). As to conditions: for Emax: HEK293, HEK293 cells inducible for P301L mutant human Tau, maximum = Thiamet G 200 uM; for EC50: HEK293 cells inducible for P301L mutant human Tau, 6 hours incubation, read-out: Cellular hOGA, pEC50 (converted). The test is classed as cell-based. The protocol: HEK293 cells inducible for P301L mutant human Tau (isoform 2N4R) were established at Janssen. Thiamet-G was used for both plate validation (high control) and as reference compound (reference EC50 assay validation). OGA inhibition is evaluated through the immunocytochemical (ICC) detection of O-GlcNAcylated proteins by the use of a monoclonal antibody (CTD110.6; Cell Signaling, #9875) detecting 0-GlcNAcylated residues as previously described (Dorfmueller et al. 2010 Chemistry & biology, 17:1250). Inhibition of OGA will result in an increase of O-GlcNAcylated protein levels resulting in an increased signal in the experiment. Cell nuclei are stained with Hoechst to give a cell culture quality control and a rough estimate of immediate compounds toxicity, if any. ICC pictures are imaged with a Perkin Elmer Opera Phenix plate microscope and quantified with the provided software Perkin Elmer Harmony 4.1.
Cells were propagated in DMEM high Glucose (Sigma, #D5796) following standard procedures. 2 days before the cell assay cells are split, counted and seeded in Poly-D-Lysine (PDL) coated 96-wells (Greiner, #655946) plate at a cell density of 12,000 cells per cm^2 (4,000 cells per well) in 100 μl of Assay Medium (Low Glucose medium is used to reduce basal levels of GlcNAcylation) (Park et al. 2014 The Journal of biological chemistry 289:13519). At the day of compound test medium from assay plates was removed and replenished with 90 μl of fresh Assay Medium. 10 μl of compounds at a 10fold final concentration were added to the wells. Plates were centrifuged shortly before incubation in the cell incubator for 6 hours. DMSO concentration was set to 0.2%. Medium is discarded by applying vacuum. For staining of cells medium was removed and cells washed once with 100 μl D-PBS (Sigma, #D8537). From next step onwards unless other stated assay volume was always 50 μl and incubation was performed without agitation and at room temperature. Cells were fixed in 50 μl of a 4% paraformaldehyde (PFA, Alpha aesar, #043368) PBS solution for 15 minutes at room temperature. […] Before analysis samples were washed 2 times manually for 5 minutes in ICC base buffer.
Imaging is performed using Perkin Elmer Phenix Opera using a water 20× objective and recording 9 fields per well. Intensity readout at 488 nm is used as a measure of O-GlcNAcylation level of total proteins in wells. To assess potential toxicity of compounds nuclei were counted using the Hoechst staining. IC50-values are calculated using parametric non-linear regression model fitting. As a maximum inhibition Thiamet G at a 200 uM concentration is present on each plate. In addition, a concentration response of Thiamet G is calculated on each plate.

Test [2] deals with T2, recombinant human Meningioma Expressed Antigen 5 (MGEA5), also referred to as O-GlcNAcase (OGA) (Homo sapiens, UniProt O60502).
T2 construct: Full length OGA enzyme was purchased at OriGene (cat #TP322411); purchased OriGene TP322411
T2 sequence (O60502 1-916): T1 sequence (O60502 1-916)
Briefly: OGA biochemical assay (inhibition of FM-GlcNAc hydrolysis, fluorescence). As to conditions: FM-GlcNAc substrate; for IC50: 6 h at room temperature, read-out: Enzymatic hOGA, pIC50 (converted); for Emax: read-out: Enzymatic Emax (%). An excerpt: The assay is based on the inhibition of the hydrolysis of fluorescein mono-β-D-N-Acetyl-Glucosamine (FM-GlcNAc) (Mariappa et al. 2015, Biochem J 470:255) by the recombinant human Meningioma Expressed Antigen 5 (MGEA5), also referred to as O-GlcNAcase (OGA). The hydrolysis FM-GlcNAc (Marker Gene technologies, cat #M1485) results in the formation of β-D-N-glucosamineacetate and fluorescein. The fluorescence of the latter can be measured at excitation wavelength 485 nm and emission wavelength 538 nm. An increase in enzyme activity results in an increase in fluorescence signal. Full length OGA enzyme was purchased at OriGene (cat #TP322411). The enzyme was stored in 25 mM Tris.HCl, pH 7.3, 100 mM glycine, 10% glycerol at −20° C. Thiamet G and GlcNAcStatin were tested as reference compounds (Yuzwa et al. 2008 Nature Chemical Biology 4:483; Yuzwa et al. 2012 Nature Chemical Biology 8:393). The assay was performed in 200 mM Citrate/phosphate buffer supplemented with 0.005% Tween-20. 35.6 g Na2HPO4 2H2O (Sigma, #C0759) were dissolved in 1 L water to obtain a 200 mM solution. 19.2 g citric acid (Merck, #1.06580) was dissolved in 1 L water to obtain a 100 mM solution. pH of the sodiumphosphate solution was adjusted with the citric acid solution to 7.2. The buffer to stop the reaction consists of a 500 mM Carbonate buffer, pH 11.0. 734 mg FM-GlcNAc were dissolved in 5.48 mL DMSO to obtain a 250 mM solution and was stored at −20° C. OGA was used at a 2 nM concentration and FM-GlcNAc at a 100 uM final concentration. Dilutions were prepared in assay buffer.
50 nl of a compound dissolved in DMSO was dispensed on Black Proxiplate™ 384 Plus Assay plates (Perkin Elmer, #6008269) and 3 μl fl-OGA enzyme mix added subsequently. Plates were pre-incubated for 60 min at room temperature and then 2 μl FM-GlcNAc substrate mix added. […] Plates were briefly centrifuged for 1 min at 1000 rpm and incubate at room temperature for 6 h. To stop the reaction 5 μl STOP buffer were added and plates centrifuge again 1 min at 1000 rpm. Fluorescence was quantified in the Thermo Scientific Fluoroskan Ascent or the PerkinElmer EnVision with excitation wavelength 485 nm and emission wavelength 538 nm.
For analysis a best-fit curve is fitted by a minimum sum of squares method. From this an IC50 value and Hill coefficient was obtained. High control (no inhibitor) and low control (saturating concentrations of standard inhibitor) were used to define the minimum and maximum values.

With `COc1cc(NC[C@H]2CCCN(C(C)c3ccc4sc(C)nc4n3)C2)cc(C)n1` (some centres unmarked) [Compound 109], in test [1], the Emax amounted to 89% and the EC50 is 10 nM. Further, in test [2], the IC50 is 6.31 nM. The Emax in test [2] (maximal effect) turned out to be 100%.
The like results for `Cc1cc(C[C@H]2CCCN(C(C)c3cnc4c(c3)nc(C)n4C)C2)cc(C)n1` (mixture of isomers) [Compound 11] were, in that order, 64%, 631 nM, 31.6 nM and 100%.
Take `Cc1cc(OC[C@H]2CCN(C(C)c3ccc4sc(C)nc4n3)C2)cc(C)n1` (mixture of isomers) [Compound 48]: the results for the Emax in test [1] and in test [2] (maximal effect) were 16% and 93%, respectively. The EC50 in test [1] was more than 1000 nM. Also, the IC50 in test [2] is 794 nM.
The like results for `Cc1cc(C[C@@H]2CCN(C(C)c3ccc4sc(C)nc4n3)C2)cc(C)n1` (mixture of isomers) [Compound 43] were, in that order, 60%, 103%, 631 nM and 53.7 nM.
The like results for `Cc1cc(C2CCCN(C(C)c3cc4nc(C)sc4cc3F)C2)cc(C)n1` (centres unmarked) [Compound 89] were, in that order, 64%, 102%, 15.8 nM and 6.31 nM.
The like results for `Cc1cc(C[C@H]2CCCN(C(C)c3ccc4oc(C)nc4n3)C2)cc(C)n1` (mixture of isomers) [Compound 22] were, in that order, 91%, 101%, 12.6 nM and 3.16 nM.
As to `Cc1cc([C@H]2CCCN([C@@H](C)c3nc4nc(C)sc4cc3F)C2)cc(C)n1` (single isomer, unassigned) [Compound 87], the Emax in test [1] stood at 79%; in test [2] (maximal effect), 99%. The EC50 in test [1] is 3.16 nM. In addition, the IC50 in test [2] was 2.51 nM.
The like results for `Cc1cc(OC[C@H]2CCCN([C@H](C)c3ccc4sc(C)nc4n3)C2)nc(C)n1` [Compound 49b] were, in that order, 70%, 99%, 31.6 nM and 6.31 nM.
For `Cc1cc([C@H]2CCCN(C(C)c3nc4nc(C)sc4cc3F)C2)cc(C)n1` (single isomer, unassigned) [Compound 85], in test [1], the maximal response (Emax) was found to be 75% and the EC50 is 10 nM. Also, in test [2], the IC50 is 3.98 nM. Besides, the Emax in test [2] (maximal effect) is 100%.
The like results for `COc1cc(CN[C@H]2CCCN(C(C)c3ccc4sc(C)nc4n3)C2)cc(C)n1` (some centres unmarked) [Compound 107] were, in that order, 60%, 794 nM, 63.1 nM and 93%.
For the compound `Cc1cc(C[C@H]2CCCN(C(C)c3ccc4sc(C)nc4n3)C2)cc(C)n1` (single isomer, unassigned) [Compound 42b], in test [1], the Emax is 79% and the EC50 is 10 nM. The IC50 in test [2] was 2.51 nM. Also, the “Enzymatic Emax (%)” value in test [2] (maximal effect) stood at 101%.
For the compound `Cc1cc(NCC2CCCN(C(C)c3ccc4sc(C)nc4n3)C2)cc(C)n1` (centres unmarked) [Compound 105], the Emax was 14% in test [1] and 94% in test [2] (maximal effect). Further, in test [1], the EC50 is more than 1000 nM. For the same compound, in test [2], the IC50 was 501 nM.
In the case of `Cc1cc(C[C@H]2CCCN([C@H](C)c3ccc4oc(C)nc4n3)C2)cc(C(F)(F)F)n1` [Compound 24a], in test [1], the Emax turned out to be 81% and the EC50 is 39.8 nM. Further, the IC50 in test [2] is 7.94 nM. Also, the Emax in test [2] (maximal effect) amounted to 99%.
The like results for `Cc1cc(C[C@H]2CCN(C(C)c3cnc4[nH]c(C)nc4c3)C2)cc(C(F)(F)F)n1` (some centres unmarked) [Compound 104] were, in that order, 20%, more than 1000 nM, 501 nM and 94%.
The like results for `Cc1cc([C@H]2CCCN([C@H](C)c3nc4nc(C)sc4cc3F)C2)cc(C)n1` (single isomer, unassigned) [Compound 86] were, in that order, 12%, more than 1000 nM, 1580 nM and 95%.
The like results for `Cc1cc(CO[C@H]2CCCN(C(C)c3ccc4sc(C)nc4n3)C2)cc(C)n1` (single isomer, unassigned) [Compound 67] were, in that order, 5%, more than 1000 nM, 501 nM and 94%.
For `Cc1cc(C[C@@H]2CCN(C(C)c3ccc4sc(C)nc4n3)C2)nc(C)n1` (single isomer, unassigned) [Compound 72], the Emax in test [1] was 18%; in test [2] (maximal effect), 95%. Moreover, the EC50 in test [1] was more than 1000 nM. Besides, the IC50 in test [2] was 316 nM.

The Emax is the greatest response seen or fitted, relative to the assay's reference.

(Values after patent US20210115040A1, “OGA INHIBITOR COMPOUNDS” (Janssen Pharmaceutica NV, priority 2018, published 2021).)
